# Results as given in US11090410B2 (priority 2011, dated 2021).
# “Also recorded” adds a separate entry of the source. Where two headings read alike, the source gives them in different places.
# Test system: acetylcholine receptor clustering in C2C12 mouse myoblast cell line
# Format: cell-based
# Settings: for acetylcholine receptor clustering behavior: C2C12 cells on fibrin hydrogels, 5 days of treatment or beyond
substance,measurement,setting,value
beads covalently linked to agrin: polystyrene microparticles with agrin linked to the surface using EDAC/sulfo-NHS covalent crosslinking chemistry,acetylcholine receptor clustering behavior,,induction of clustering behavior; also recorded: Clustering behavior was verified at areas of contact
same,acetylcholine receptor clustering behavior,listed as agrin-delivering microparticles,formation of AChR clusters
same,agrin delivery over longer time periods,"e.g., 5 or more days",enabled agrin delivery over longer time periods
